PubChem BioAssay (NCI)
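The compound was tested at five concentrations on cells cultured in 96-well plates, with a 48-hour exposure period. At the TGI there is no net growth.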

How the values were obtained:
Test in all cases: growth of human tumour cells (NCI), 48 h
UACC-257 melanoma = system: UACC-257 melanoma
HCC-2998 colon = system: HCC-2998 colon
HT29 colon = system: HT29 colon
HOP-62 NSCLC = system: HOP-62 NSCLC
MALME-3M melanoma = system: MALME-3M melanoma
T-47D breast = system: T-47D breast
HCT-116 colon = system: HCT-116 colon
NCI/ADR-RES ovarian = system: NCI/ADR-RES ovarian
A498 renal = system: A498 renal
SF-295 CNS = system: SF-295 CNS
PC-3 prostate = system: PC-3 prostate
OVCAR-5 ovarian = system: OVCAR-5 ovarian
U251 CNS = system: U251 CNS
LOX IMVI melanoma = system: LOX IMVI melanoma
786-0 renal = system: 786-0 renal
NCI-H23 lung = system: NCI-H23 lung
UACC-62 melanoma = system: UACC-62 melanoma
MDA-MB-231 breast = system: MDA-MB-231 breast
IGROV1 ovarian = system: IGROV1 ovarian
RXF 393 renal = system: RXF 393 renal
SW-620 colon = system: SW-620 colon
DU-145 prostate = system: DU-145 prostate
HS 578T breast = system: HS 578T breast
CCRF-CEM leukemia = system: CCRF-CEM leukemia
SF-268 CNS = system: SF-268 CNS
ACHN renal = system: ACHN renal
BT-549 breast = system: BT-549 breast
EKVX NSCLC = system: EKVX NSCLC
HCT-15 colon = system: HCT-15 colon
OVCAR-3 ovarian = system: OVCAR-3 ovarian
SK-MEL-2 melanoma = system: SK-MEL-2 melanoma
SK-MEL-28 melanoma = system: SK-MEL-28 melanoma
K-562 leukemia = system: K-562 leukemia
SN12C renal = system: SN12C renal
CAKI-1 renal = system: CAKI-1 renal
UO-31 renal = system: UO-31 renal
MCF7 breast = system: MCF7 breast
SNB-75 CNS = system: SNB-75 CNS
OVCAR-8 ovarian = system: OVCAR-8 ovarian
RPMI-8226 leukemia = system: RPMI-8226 leukemia
OVCAR-4 ovarian = system: OVCAR-4 ovarian
M14 melanoma = system: M14 melanoma
SNB-19 CNS = system: SNB-19 CNS
KM12 colon = system: KM12 colon
SK-MEL-5 melanoma = system: SK-MEL-5 melanoma
SF-539 CNS = system: SF-539 CNS
A549 NSCLC = system: A549 NSCLC
MDA-N = system: MDA-N
COLO 205 colon = system: COLO 205 colon
TK-10 renal = system: TK-10 renal
SK-OV-3 ovarian = system: SK-OV-3 ovarian
HL-60(TB) leukemia = system: HL-60(TB) leukemia
HOP-92 NSCLC = system: HOP-92 NSCLC
MOLT-4 leukemia = system: MOLT-4 leukemia
NCI-H460 lung = system: NCI-H460 lung
NCI-H226 lung = system: NCI-H226 lung
MDA-MB-435 = system: MDA-MB-435
NCI-H522 lung = system: NCI-H522 lung

SMILES: CC(C)/C(Cl)=N\OC(=O)Nc1ccc(F)cc1F
- TGI (UACC-257 melanoma): 27.7 µM
- TGI (HCC-2998 colon): 34 µM
- TGI (HT29 colon): 15.8 µM
- TGI (HOP-62 NSCLC): 31.8 µM
- TGI (MALME-3M melanoma): 3.58 µM
- TGI (T-47D breast): 47.3 µM
- TGI (HCT-116 colon): 15.7 µM
- TGI (NCI/ADR-RES ovarian): 21.2 µM
- TGI (A498 renal): 31.1 µM
- TGI (SF-295 CNS): 28.3 µM
- TGI (PC-3 prostate): 31.6 µM
- TGI (OVCAR-5 ovarian): 33.5 µM
- TGI (U251 CNS): 32.8 µM
- TGI (LOX IMVI melanoma): 3.32 µM
- TGI (786-0 renal): 13.3 µM
- TGI (NCI-H23 lung): 30.1 µM
- TGI (UACC-62 melanoma): 38.7 µM
- TGI (MDA-MB-231 breast): 6.34 µM
- TGI (IGROV1 ovarian): 30.9 µM
- TGI (RXF 393 renal): 12.6 µM
- TGI (SW-620 colon): 3.31 µM
- TGI (DU-145 prostate): 31.7 µM
- TGI (HS 578T breast): 52.7 µM
- TGI (CCRF-CEM leukemia): > 21.7 µM
- TGI (SF-268 CNS): 38.9 µM
- TGI (ACHN renal): 8.53 µM
- TGI (BT-549 breast): 25.9 µM
- TGI (EKVX NSCLC): 13.8 µM
- TGI (HCT-15 colon): 21.8 µM
- TGI (OVCAR-3 ovarian): 6.69 µM
- TGI (SK-MEL-2 melanoma): 28.2 µM
- TGI (SK-MEL-28 melanoma): 25.4 µM
- TGI (K-562 leukemia): > 100 µM
- TGI (SN12C renal): 21.1 µM
- TGI (CAKI-1 renal): 34.3 µM
- TGI (UO-31 renal): 17.8 µM
- TGI (MCF7 breast): 13.4 µM
- TGI (SNB-75 CNS): 33.6 µM
- TGI (OVCAR-8 ovarian): 31.6 µM
- TGI (RPMI-8226 leukemia): 75.2 µM
- TGI (OVCAR-4 ovarian): 10.3 µM
- TGI (M14 melanoma): 13.3 µM
- TGI (SNB-19 CNS): 34.8 µM
- TGI (KM12 colon): 35.1 µM
- TGI (SK-MEL-5 melanoma): 27.4 µM
- TGI (SF-539 CNS): 30.6 µM
- TGI (A549 NSCLC): 34.6 µM
- TGI (MDA-N): 22.7 µM
- TGI (COLO 205 colon): 3.52 µM
- TGI (TK-10 renal): 9.55 µM
- TGI (SK-OV-3 ovarian): 30.8 µM
- TGI (HL-60(TB) leukemia): 0.626 µM
- TGI (HOP-92 NSCLC): 3.61 µM
- TGI (MOLT-4 leukemia): 3.99 µM
- TGI (NCI-H460 lung): 43.1 µM
- TGI (NCI-H226 lung): 29.8 µM

SMILES: CC(C)(CO)NC(=O)Nc1c(C(F)(F)F)cc(-c2ccccc2)[nH]c1=O
- TGI (UACC-257 melanoma): > 100 µM
- TGI (HCC-2998 colon): > 100 µM
- TGI (HT29 colon): > 100 µM
- TGI (HOP-62 NSCLC): > 100 µM
- TGI (MALME-3M melanoma): > 100 µM
- TGI (T-47D breast): > 100 µM
- TGI (HCT-116 colon): > 100 µM
- TGI (NCI/ADR-RES ovarian): > 100 µM
- TGI (A498 renal): > 100 µM
- TGI (SF-295 CNS): > 100 µM
- TGI (PC-3 prostate): > 100 µM
- TGI (OVCAR-5 ovarian): > 100 µM
- TGI (U251 CNS): > 100 µM
- TGI (LOX IMVI melanoma): > 100 µM
- TGI (786-0 renal): > 100 µM
- TGI (NCI-H23 lung): > 100 µM
- TGI (UACC-62 melanoma): > 100 µM
- TGI (MDA-MB-231 breast): > 100 µM
- TGI (IGROV1 ovarian): > 100 µM
- TGI (RXF 393 renal): > 100 µM
- TGI (SW-620 colon): > 100 µM
- TGI (DU-145 prostate): > 100 µM
- TGI (HS 578T breast): > 100 µM
- TGI (CCRF-CEM leukemia): > 100 µM
- TGI (SF-268 CNS): > 100 µM
- TGI (ACHN renal): > 100 µM
- TGI (BT-549 breast): > 100 µM
- TGI (EKVX NSCLC): > 100 µM
- TGI (HCT-15 colon): > 100 µM
- TGI (OVCAR-3 ovarian): > 100 µM
- TGI (SK-MEL-2 melanoma): > 100 µM
- TGI (SK-MEL-28 melanoma): > 100 µM
- TGI (K-562 leukemia): > 100 µM
- TGI (SN12C renal): > 100 µM
- TGI (CAKI-1 renal): > 100 µM
- TGI (UO-31 renal): > 100 µM
- TGI (MCF7 breast): > 100 µM
- TGI (OVCAR-8 ovarian): > 100 µM
- TGI (M14 melanoma): > 100 µM
- TGI (SNB-19 CNS): > 100 µM
- TGI (KM12 colon): > 100 µM
- TGI (SK-MEL-5 melanoma): > 100 µM
- TGI (A549 NSCLC): > 100 µM
- TGI (MDA-N): > 100 µM
- TGI (COLO 205 colon): > 100 µM
- TGI (TK-10 renal): > 100 µM
- TGI (SK-OV-3 ovarian): > 100 µM
- TGI (MDA-MB-435): > 100 µM
- TGI (HOP-92 NSCLC): > 100 µM
- TGI (MOLT-4 leukemia): > 100 µM
- TGI (NCI-H522 lung): > 100 µM
- TGI (NCI-H460 lung): > 100 µM
- TGI (NCI-H226 lung): > 100 µM
